Assay results: patent US20260076893A1, “SELF-FOAMING CLEANSING COMPOSITION” (Conopco, Inc., d/b/a UNILEVER, priority 2022, published 2026)

Legend:
[1] = DPPH scavenging method (antioxidation); format: biochemical; conditions: 0.25%, positive control, dilution not given
From the text: To add antioxidation properties to the self-foaming cleansing composition, tocopherol (Vitamin E) can be added. Antioxidation can be measured using a DPPH scavenging method where DPPH (1,1-Diphenyl-2-picrylhydrazyl) is a stable free radical. On accepting hydrogen from a corresponding donor, its solutions lose a characteristic deep purple color and antiradical activity of tested formulations can be expressed as a percentage decrease of DPPH concentration. […] Accordingly, in a further aspect, the invention relates to the use of tocopherol in a composition according to the invention to provide anti-oxidant activity to the cleansing composition, preferably dose-dependent anti-oxidant activity. The invention relates further to the use of tocopherol to reduce free radicals in a cleansing composition according to the invention, preferably dose-dependent anti-oxidant activity. In a further embodiment, it may be preferred that the cleansing composition of the invention comprises tocopherol and moringa seed oil.
The antioxidant activity of the formulations in Samples 4 and 5 were tested using the DPPH scavenging method (1,1-Diphenyl-2-picrylhydrazyl). DPPH is a stable free radical. […] The antiradical activity of Samples 4 and 5 was expressed as a percentage decrease of DPPH concentration.

IL-1a = test: Living skin equivalent assay, IL-1a; format: cell-based; conditions: living skin equivalent after application of test solution
Method: (§1) In the following samples, compositions were made with varying levels of moringa seed oil and tested in a living skin equivalent assay. The base composition was tested with levels of 0.1% by weight, 0.2% by weight, and 0.3% by weight of moringa seed oil, based on the total weight of the self-foaming cleansing composition. The living skin equivalent assay study monitored gene expression of several markers after application of the test solutions to the living skin equivalent assay.
(§2) Comparative Example 1 was a non-treated control meaning no application on the skin model. Comparative Example 2 was another control where phosphate-buffered saline (PBS) was applied topically to the skin model.

CASP14 = test: Living skin equivalent assay, CASP14 gene expression; format: cell-based
Method: as §1, §2

AQP3 = test: Living skin equivalent assay, AQP3 gene expression; format: cell-based
Method: as §1, §2

Compound | % Reduction over DPPH reagent control [1] | IL-1a (IL-1a) | CASP14 (Fold change) (CASP14) | AQP3 (Fold change) (AQP3)
O=C1O[C@H]([C@@H](O)CO)C(O)=C1O [Vitamin C] | 95.04% |  |  | 
squalene monoperoxide [SQOOH] |  | 483.84 ± 11.42 pg/mL | 0.54 ± 0.31 Fold change | 0.27 ± 0.04 Fold change
